Tests used:
[1] = system: KJ1 positive D011.10 CD4 T cells; assay: OVA pulsed DC transfer into D011.10 loaded Balb/c mice; type: in vivo; conditions: for Total KJ1 Positive Cells/Spleen: others 100 ng/ml
Procedure: In a second experiment 6-7 day bone marrow derived (Balb/c) DCs were pulsed with antigen and subsequently stimulated overnight with LPS, MPL® immunostimulant-S, and RC-527 (Table 6). 5×10^6 D011.10 CD4 (KJ1-positive) T cells were transferred into Balb/c mice, and 24 hours later ova-pulsed cultured, DCs from the control group (pulsed with ova only) and the indicated test DCs potentiated with LPS, MPL® immunostimulant-S or RC-527 were also injected intravenously. […] The transferred DCs stimulated with ova only, ova+LPS and ova+MPL® immunostimulant-S produced a similar effect in inducing the amplification of D011.10 T lymphocyte numbers above the value observed when untreated DCs (i.e., no ova and no lipid A) were used as the putative APC source and transfected into Balb/c mice preinjected with KJ1 CD4 cells.
5×10^6 KJ1 positive D011.10 spleen cells were injected into Balb/c mice (I.V.) on day zero minus 1; 24 hrs later 5×10^6 DC's from the indicated in vitro induction test groups were injected I.V. and the spleens from test animals were harvested 3 and 5 days later for total KJ1 enumeration.

[2] = system: cryogenically stored 10 day murine DCs + D011.10 effector T cells; assay: Cryogenically preserved 10 day murine DCs in the D011.10 T cell assay (IFN-γ ELISA); type: cell-based
Procedure: In order to determine if 10 day GM-CSF precultured DCs could be recovered from cryogenic storage and still retain their functional potential, studies were carried out to determine the functional integrity of LPS- and RC-527-stimulated, cryogenically preserved, 10 day DCs in the D011.10 T cell assay system. Specifically, 10 day GM-CSF-precultured DCs were stored in liquid nitrogen for several weeks. The cells were subsequently thawed and maintained for 24 hours in tissue culture in the presence of GM-CSF. After 24 hours in this “resting” culture, DCs were pulsed with ova for four hours and potentiated with LPS for 24 hours prior to placing them against D011.10 effector T cells at 4:1 and 8:1 ratios.
D011.10 effector T cell cultures were maintained for 24 hours and 48 hours, and culture supernatants were collected at both time points. These supernatants were tested for IFN-γ using a commercial ELISA system. The IFNγ response induced either by antigen-pulsed, lipid A stimulated DCs after 24 hours incubation with D011.10 T cells (FIG. 13a) or by LPS and RC-527 stimulated, cryogenically stored, cultured DCs after 48 hours of incubation with D011.10 effector T cells (FIG. 13b) was measured.

[3] = system: cultured human dendritic cells (DC); assay: Flow cytometry of cell surface activation markers on human DCs restimulated 72 hours with AGPs (titration); type: cell-based; conditions: for DC expression of CD83 (in words): FIG. 16
Procedure: Dendritic cells are developed in-vitro from human CD14+ monocyte precursors using standard 7 day GM-CSF ([…]) and IL-4 ([…]) culture conditions. The cultured DCs are >90% CD11c^+/HLA-DR^+/lineage^− by flow cytometry analysis. FIGS. 15-18 show the results of flow cytometry analysis of gated CD11c^+/HLA-DR^+/lineage^− human DCs after they were restimulated in-vitro for 72 hours in the presence of selected AGPs at a titration range of 0.1 μg/ml-2 μg/ml. Data is expressed as the percent of gated DCs which are positive for the indicated marker (y-axis) versus the logo10 of the AGP or lipid A concentration. R595 LPS was used in each induction at 10 ng/ml as a positive control—the negative control was unstimulated human dendritic cells cultured for 72 hours in the same medium conditions used for AGP stimulation. Data was analyzed using non-linear regression analysis—all data was modeled using a 3rd order polynomial to determiine the best curve fit.

[4] = system: cultured human dendritic cells (DC); assay: as above; type: cell-based; conditions: titration 0.1-2 μg/ml, FIG. 18
[5] = 72 hours, titration 0.1-2 μg/ml, FIG. 15
[6] = 72 hours, titration 0.1-2 μg/ml
[7] = single analysis, one normal donor

CCCCCCCCCCCC(CC(=O)NC(COC1OC(CO)C(OP(=O)(O)O)C(OC(=O)CC(CCCCCCCCCCC)OC(=O)CCCCCCCCC)C1NC(=O)CC(CCCCCCCCCCC)OC(=O)CCCCCCCCC)C(=O)O)OC(=O)CCCCCCCCC (centres unmarked) [RC-527]
Total KJ1 Positive Cells/Spleen ([1]; Day 3 after I.V. transfer of 5×10^6 OVA pulsed DCs stimulated in vitro, LPS 10 ng/ml): 4.1 × 10^6 Cells/Spleen
Total KJ1 Positive Cells/Spleen ([1]; Day 5 after I.V. transfer of 5×10^6 OVA pulsed DCs stimulated in vitro, LPS 10 ng/ml): 3.0 × 10^6 Cells/Spleen
splenic KJ1+ CD4 T cell numbers (in words) ([1]; day 3 and day 5 after transfer of stimulated DCs): higher levels of splenic KJ1^+ CD4 T cell numbers than any of the other test groups at both time points
KJ1+ CD4 response, % of all splenic CD4 cells ([1]; second, similar DC transfer experiment, at 5 days, LPS 10 ng/ml, MPL-S 100 ng/ml): 3.9%
IFN-γ response of cryogenically stored DCs after antigen pulsing and activation (in words) ([2]; compared with unfrozen 10 day DCs): fully capable of supporting an IFNγ response
IFN-γ response, 48 hours versus 24 hours of incubation (in words) ([2]; cryogenically stored DCs, FIG. 13): significantly stronger IFN-γ response after 48 hours
cell surface expression of CD80 (in words) [3, 5]: highest level of increased cell surface expression
DC expression of CD83 (in words) [3, 6]: highest DC expression levels
cell surface expression of CD40 (in words) ([3]; 72 hours, titration 0.1-2 μg/ml, FIG. 17): highest elevated cell surface expression
concentration at which the effect is usually already maximized [3, 7]: 100 ng/mL
overall induction of DC maturation and co-stimulatory molecule expression (in words) [3, 7]: strongest induction of DC maturation and co-stimulatory molecule expression of all the AGPs tested
CD86 expression, mean channel fluorescence (in words) [4]: highest stimulation of CD86 expression over most of the titration range

CCCCCCCCCCCCCC(=O)O[C@H](CCCCCCCCCCC)CC(=O)NCCO[C@@H]1O[C@H](CO)[C@@H](OP(=O)(O)O)[C@H](OC(=O)C[C@@H](CCCCCCCCCCC)OC(=O)CCCCCCCCCCCCC)[C@H]1NC(=O)C[C@@H](CCCCCCCCCCC)OC(=O)CCCCCCCCCCCCC.CCN(CC)CC [RC-529, 2-[(R)-3-Tetradecanoyloxytetradecanoylamino]ethyl 2-Deoxy-4-O-phosphono-3-O-[(R)-3-tetradecanoyoxytetradecanoyl]-2-[(R)-3-tetradecanoyoxytetradecanoylamino]-β-D-glucopyranoside triethylammonium salt]
concentration at which the CD80 effect appears to plateau ([3]; 72 hours, FIG. 15): 1 µg/mL
concentration at which the CD86 effect plateaus or maximizes ([3]; 72 hours, FIG. 18): 1 µg/mL
cell surface expression of CD80 (in words) [3, 5]: lowest overall increase in CD80 expression
DC expression of CD83 (in words) [3, 6]: weak overall increase in CD83 expression
overall induction of DC maturation and co-stimulatory molecule expression (in words) [3, 7]: very low to marginally positive CD80 and CD83 expression

Source: patent publication US20040033213A1, “Methods of modulating dendritic cells using adjuvants” (Corixa Corporation, priority 2002, published 2004)
